Patent EP3092214B1, “NITROSAMINE/NITRITE INHIBITION IN TERTIARY ALKYLAMINE OXIDE COMPOSITIONS” (EOC Surfactants N.V., priority 2014, dated 2015)
Read-outs that look alike come from different tables or passages of the source.

How the values were obtained:
[1] = Synthesis tests of cocamidopropylamine oxide with candidate inhibitors: colour of the final product; format: physicochemical; conditions: additive 0,1% by weight on amido-amine
Method: (§1) To a three-neck flask of 1000 ml, demi-water and citric acid were added. The acid was added in order to keep the pH of the reaction mixture below 9. Subsequently, cocamidopropylamine and hydrogen peroxide were added. The reaction mixture was heated to a desired temperature of either 50 °C or 70 °C. Upon reaching the desired reaction temperature, sodium bicarbonate was added. The pH of the reaction mixture is maintained between 7,0 and 7,5. If necessary, NaOH is added.
(§2) In the examples described below, different additives were tested for their ability to inhibit the formation of nitrosamines. Each time, during the reaction, an amount of inhibitor was added which corresponds to 0,1% by weight of the amount of added amido-amine raw material.

[2] = for Content of nitrosamines: cocamidopropylamine oxide synthesis, additive 0,1% by weight on amido-amine; for inhibitory effect on the formation of nitrosamines: result in words, tertiary alkylamine oxide (cocamidopropylamine oxide) synthesis
Method: For the measurement, gas chromatography in combination with a thermal energy analyzer (GC-TEA) is used. In measurements using this technique, the so-called apparent total N-nitroso compounds (ATNC) are determined by a chemical denitrosation and detection of the released […] in µg/kg (ppb). This content is also determined by denitrosation of an N-nitrosodiisopropanolamine (NDiPLA) calibration standard.
as §1, §2
The nitrosamine content was determined with the aid of a chemical denitrosation technique and measurement with a thermal energy analyzer. The detection limit of the method used was 50 µg total content of N-nitroso compounds/kg.

Row | Colour ([1]; Temp 50 °C) [Apha] | SMILES | Content of nitrosamines ([2]; Temp 50 °C) [ppb] | Content of nitrosamines ([2]; Temp 70 °C) [ppb] | inhibitory effect on the formation of nitrosamines [2] | Colour ([1]; Temp 70 °C) [Apha]
1 | 27 | O=C(O)CN(CCN(CC(=O)O)CC(=O)O)CCN(CC(=O)O)CC(=O)O [DTPA Na, diethylene triamine pentaacetic acid] |  |  |  | 
2 | 27 | O=C(O)CN(CCN(CC(=O)O)CC(=O)O)CC(=O)O [EDTA, ethylenediaminetetraacetic acid] | 660 | 1550 | insufficiently able to inhibit the formation of nitrosamines | 37

Row | SMILES | Colour ([1]; Temp 50 °C) [Apha] | Content of nitrosamines ([2]; Temp 50 °C) [ppb] | Content of nitrosamines ([2]; Temp 70 °C) [ppb] | inhibitory effect on the formation of nitrosamines [2] | Colour ([1]; Temp 70 °C) [Apha]
3 | O=P(O)(O)CN(CCN(CP(=O)(O)O)CP(=O)(O)O)CCN(CP(=O)(O)O)CP(=O)(O)O [DTPMP, diethylenetriamine penta(methylene phosphonic acid)] | 50 | 1637 | 765 | insufficiently able to inhibit the formation of nitrosamines | 24
